Results taken from US20150306056A1, “USE OF A DHA ESTER FOR PROPHYLACTIC AND/OR CURATIVE TREATMENT OF DREPANOCYTOSIS” (PIERRE FABRE MEDICAMENT, priority 2012, published 2015).

How the values were obtained:
Type in all cases: in vivo
[1] = DHA plasma level in dogs given nicotinol DHA via oral route
Text: (§1) Effect of nicotinol DHA on the fatty acid composition of plasma and red blood cells in dogs treated via oral route. The objective of this first study was to assay total DHA in the blood (plasma and red blood cells) of dogs given nicotinol DHA via oral route.
(§2) Two groups of 10 dogs were used:
(§3) Group 2: nicotinol DHA at 2 g per day.
(§4) All the animals were given either a placebo or nicotinol DHA at 2 g per day via oral route for 28 days. Blood samples were taken at D1 (control), D7, D14, D21 and D28.
(§5) The total lipids of the plasma (500 μL) and of the red blood cells (≈500 mg, the weighing of red blood cells is more accurate than measuring volume) were extracted with 4 mL of hexane/isopropanol mixture ([…]) in an acid medium (3M HCl, 500 μL) in the presence of margaric acid as internal standard (100 μg). After agitation and centrifugation (2000 g, 15 minutes, 10° C.) the organic phase was separated. A second extraction with 2 mL of the same solvent was performed under the same conditions. The organic phases were washed with 2 mL of saline water ([…]). The solvents were evaporated under a stream of nitrogen at 40° C.
(§6) The total lipids derived from the plasma and red blood cells were then saponified (1 mL of 0.5M NaOH in methanol, 70° C., 30 minutes) then converted to methyl eaters (1 mL, 14% BF3 in methanol, 70° C., 15 minutes). After hydrolysio (4 mL […]) they were extracted with 4 then 2 mL of pentane. The organic phases were washed with 2 mL of saline water (9% NaCl). The solvents were evaporated under a stream of nitrogen at 40° C. The methyl esters were re-dissolved in 200 μL hexane for the plasma and red blood cells. The extracted fatty acid methyl esters were analysed by gas phase chromatography. The chromatograph (Agilent Technologies 6890N) was equipped with a split injector heated to 260° C. (1:10 division ratio), capillary column (length 60 m, diameter 0.25 mm) with BPX70 stationary phase (70% cyanopropylpolyphenylene-siloxane; thickness 0.25 μm) and flame ionization detector heated to 260° C. (hydrogen: 40 mL/min, air: 450 mL/min). The vector gas was helium (constant flow rate 1.5 mL/min). The temperature of the column was initially 150° C. and brought at a temperature gradient of 1.3° C./min up to 220° C. then 40° C./min to reach 260° C. for 5 minutes. The retention times of standard methyl esters allowed identification of the extracted fatty acid methyl esters.
(§7) The DHA was quantitated relative to the internal standard (C17:0) added in known quantity to the sample before extraction of the total lipids. It is expressed in μg/mL for the plasma, in μg/g for the red blood cells. The values are given as a mean f standard deviation (in general n=10). The significant differences are shown by a Student's test with 5% threshold.

[2] = DHA level of red blood cells in dogs given nicotinol DHA via oral route
Text: as §1, §2, §3, §4, §5, §6, §7

[3] = DHA level of red blood cells in rats given panthenol DHA via oral force-feeding; conditions: 300 and 1000 mg/kg per day oral, 7 days (FIG. 1)
Procedure: (§8) Incorporation of DHA in the plasma and red blood cells of rats receiving panthenol […] via oral route. The objective of this study was to assay total DHA in the blood (plasma and red blood cells) of rats given panthenol DHA via oral force-feeding for 7 days.
(§9) Three groups of 4 rats (2 male and 2 female) were used:
(§10) Group 1: control group (olive oil)
(§11) Group 2: panthenol DHA at 300 mg/kg per day.
(§12) Group 3: panthenol DHA at 1000 mg/kg per day.
(§13) The total lipids of the plasma (500 μL) and red blood cells were extracted with a hexane/isopropanol mixture (3:2, v/v) in an acid medium (3M HCl, 1 mL) in the presence of margaric acid as internal standard. The total lipids from the plasma and red blood cell were saponified (i mL 0.5M NaOH in methanol, 70° C., 30 minutes) then converted to methyl esters (1 mL, 14% BF) in methanol, 70° C., 15 minutes). The fatty acid methyl esters were extracted with pentane then analysed by gas phase chromatography. The chromatograph (Agilent Technologies 6890N) was equipped with a split injector heated to 250° C. (division ratio 1:10) and a capillary column (length 60 m, diameter 0.25 mm) with BPX70 stationary phase (70% cyanopropylpolyphenylene-siloxane; thickness 0.25 μm). The vector gas was helium. […]
(§14) The DHA was quantitated in relation to the internal standard (C17:0) added in known quantity to the sample before extraction of the total lipids. […]

[4] = DHA plasma level in rats given panthenol DHA via oral force-feeding; conditions: 300 and 1000 mg/kg per day oral, 7 days (FIG. 1)
Procedure: as §8, §9, §10, §11, §12, §13, §14

[5] = DHA concentration in human red blood cells after oral panthenol DHA (clinical trial); conditions: irrespective of the dose (1, 2, 4 g/day), 28 days
Procedure: Concentration of DHA in human red blood cells after absorption of panthenol DHA.
The objective of this clinical trial was to determine total DHA concentrations in the red blood cells of volunteers given a once daily oral dose of panthenol DHA for 28 days. Three doses of panthenol […] were tested in this trial: 1, 2 and 4 g/day. Twelve persons were included in this trial, 3 were given a placebo (without panthenol DHA) and 9 were given panthenol DHA.
Blood samples were taken before administering panthenol DHA (corresponding to the baseline) and thereafter at days 4, 7, 10 14, 15, 19, 22, 25 and 29 to determine the DHA concentrations in the red blood cells. Two blood samples of 4 mL each were taken in tubes containing EDTA. The tubes were centrifuged at 3000 g for 15 minutes at ambient temperature within 30 minutes after the taking of the sample. […]
The lipids were extracted from the red blood cell samples (≈500 mg) using a hexane/isopropanol mixture (3:2 v/v) in an acid medium in the presence of margaric acid as internal standard (100 μg). […] After extraction with pentane, the extracted fatty acid methyl esters were analysed by gas phase chromatography. […]
The DHA was quantitated relative to the internal standard (C17:0) added in known quantity to the sample before extraction of the total lipids. […]

[6] = 2 g/D oral, significant at every treatment time vs control group
[7] = group 2, D −1 (start of the experiment, before treatment with 2 g/D oral)

SMILES	DHA plasma level, mean ([1]; 2 g/D oral, D 7) [µg/mL]	DHA plasma level, mean ([1]; 2 g/D oral, D 14) [µg/mL]	DHA plasma level, mean ([1]; 2 g/D oral, D 21) [µg/mL]	DHA plasma level, mean ([1]; 2 g/D oral, D 28) [µg/mL]	effect of treatment on plasma DHA [1, 6]	DHA plasma level, mean [1, 7] [µg/mL]	DHA level of red blood cells, mean ([2]; 2 g/D oral, D 7) [µg/mL]	DHA level of red blood cells, mean ([2]; 2 g/D oral, D 14) [µg/mL]	DHA level of red blood cells, mean ([2]; 2 g/D oral, D 21) [µg/mL]	DHA level of red blood cells, mean ([2]; 2 g/D oral, D 28) [µg/mL]	effect of treatment on DHA level of red blood cells [2, 6]	DHA level of red blood cells, mean [2, 7] [µg/mL]	amount of DHA found in the red blood cells ([3]; female rats)	amount of DHA found in the red blood cells ([3]; male rats)	amount of DHA found in the plasma ([4]; female rats)	amount of DHA found in the plasma ([4]; male rats)	DHA level in human red blood cells versus placebo [5]
CC/C=C\C/C=C\C/C=C\C/C=C\C/C=C\C/C=C\CCC(=O)OCc1cccnc1 [nicotinol DHA]	22.1	23.7	27.9	32.6	increase in plasma DHA	3.8	4.7	7.1	8.3	8.7	rise in the DHA level of red blood cells	1.7	–	–	–	–	–
CC/C=C\C/C=C\C/C=C\C/C=C\C/C=C\C/C=C\CCC(=O)OCCCNC(=O)[C@@H](O)C(C)(C)CO [panthenol DHA, panthenyl docosahexaenoate]	–	–	–	–	–	–	–	–	–	–	–	–	only increased with the higher dose	dependent on the dose	only increased with the higher dose	dependent on the dose	increased compared with the placebo group
